Results as given in patent US6664260B2, “Heterocyclic ether substituted imidazoquinolines” (3M Innovative Properties Company, priority 2000, dated 2003).
Where a name gives a salt, the structure may show the parent alone.

How the values were obtained:
[1] = tested on: interferon (α); assay: Cytokine Induction in Human Cells: interferon (α) secreted by PBMCs, ELISA; format: cell-based; parameters: key to Lowest Effective Concentration (μM) Interferon: A “*” indicates that no induction was seen at any of the tested concentrations; generally the highest tested concentration was 10 or 30 μM; conditions: incubated 18 to 24 hours, lowest concentration found to induce interferon; for minimal effective concentration: PBMC
Excerpt: (§1) An in vitro human blood cell system is used to assess cytokine induction. Activity is based on the measurement of interferon and tumor necrosis factor (α) (IFN and TNF, respectively) secreted into culture media as described by Testerman et. al. In “Cytokine Induction by the Immunomodulators Imiquimod and S-27609”, Journal of Leukocyte Biology, 58, 365-372 (September, 1995).
(§2) Whole blood from healthy human donors is collected by venipuncture into EDTA vacutainer tubes. Peripheral blood mononuclear cells (PBMCs) are separated from whole blood by density gradient centrifugation using Histopaque®-1077. The PBMCs are washed twice with Hank's Balanced Salts Solution and then are suspended at 3-4×10^6 cells/mL in RPMI complete. The PBMC suspension is added to 48 well flat bottom sterile tissue culture plates (Costar, Cambridge, Mass. or Becton Dickinson Labware, Lincoln Park, N.J.) containing an equal volume of RPMI complete media containing test compound.
(§3) The compounds are solubilized in dimethyl sulfoxide (DMSO). The DMSO concentration should not exceed a final concentration of 1% for addition to the culture wells
(§4) The solution of test compound is added at 60 μM to the first well containing RPMI complete and serial 3 fold dilutions are made in the wells. The PBMC suspension is then added to the wells in an equal volume, bringing the test compound concentrations to the desired range (0.12 to 30 μM). The final concentration of PBMC suspension is 1.5-2×10^6 cells/mL. The plates are covered with sterile plastic lids, mixed gently and then incubated for 18 to 24 hours at 37° C. in a 5% carbon dioxide atmosphere.
(§5) Following incubation the plates are centrifuged for 5-10 minutes at 1000 rpm (˜200×g) at 4° C. The cell-free culture supernatant is removed with a sterile polypropylene pipet and transferred to sterile polypropylene tubes. Samples are maintained at −30 to −70° C. until analysis. The samples are analyzed for interferon (α) and for tumor necrosis factor (α) by ELISA.
Interferon (α) concentration is determined by ELISA using a Human Multi-Species kit from PBL Biomedical Laboratories, New Brunswick, N.J. Results are expressed in pg/mL.
(§6) The table below lists the lowest concentration found to induce interferon and the lowest concentration found to induce tumor necrosis factor for each compound.

[2] = tested on: tumor necrosis factor (α); assay: Cytokine Induction in Human Cells: tumor necrosis factor (α) secreted by PBMCs, ELISA; format: cell-based; parameters: key to Lowest Effective Concentration (μM) Tumor Necrosis Factor: A “*” indicates that no induction was seen at any of the tested concentrations; generally the highest tested concentration was 10 or 30 μM; conditions: incubated 18 to 24 hours, lowest concentration found to induce tumor necrosis factor; for minimal effective concentration: PBMC
Excerpt: as §1, §2, §3, §4, §5
Tumor necrosis factor (α) (TNF)concentration is determined using ELISA kits available from Genzyme, Cambridge, Mass.; R&D Systems, Minneapolis, Minn.; or Pharmingen, San Diego, Calif. Results are expressed in pg/mL.
as §6

Row | Structure (SMILES) | minimal effective concentration [1] | minimal effective concentration [2] | other results
1 | Nc1nc2ccccc2c2c1ncn2CCOCc1cn(Cc2ccccc2)nn1 [Example 10, 1-{2-[(1-Benzyl-1H-1,2,3-triazol-4-yl)methoxy]ethyl}-1H-imidazo[4,5-c]quinoline-4-amine hydrochloride] | 1.11 µM | 1.11 µM | 
2 | Nc1nc2ccccc2c2c1ncn2CCOCC#Cc1ccncc1 (as salt: trifluoroacetate) [Example 18, 1-(2-{[3-(Pyrid-4-yl)-2-propynyl]oxy}ethyl)-1H-imidazo[4,5-c]quinolin-4-amine bis(trifluoroacetate)] |  |  | melting point: 135 °C (dec.)
3 | CC(C)C(COCc1csc2ccc(Cl)cc12)n1cnc2c(N)nc3ccccc3c21 (centres unmarked) [Example 24] |  |  | Lowest Effective Concentration (μM) Interferon [1]: *; Lowest Effective Concentration (μM) Tumor Necrosis Factor [2]: *
4 | Nc1nc2ccccc2c2c1ncn2CCOCc1cn(Cc2ccccc2)nn1 (as salt: hydrochloride) [Example 10, 1-{2-[(1-Benzyl-1H-1,2,3-triazol-4-yl)methoxy]ethyl}-1H-imidazo[4,5-c]quinoline-4-amine hydrochloride] |  |  | melting point: 209 to 211 °C
5 | Nc1nc2ccccc2c2c1ncn2CCOCC#Cc1cncc2ccccc12 [Example 1, 1-(2-{[3-(Isoquinolin-4-yl)-2-propynyl]oxy}ethyl)-1H-imidazo[4,5-c]quinolin-4-amine] | 0.12 µM | 3.33 µM | 
6 | Nc1nc2ccccc2c2c1ncn2CCOCCCc1cncnc1 [Example 9, 1-[2-(3-Pyrimidin-5-ylpropoxy)ethyl]-1H-imidazo[4,5-c]quinolin-4-amine] | 0.12 µM | 3.33 µM | 
7 | CC(C)C(COc1ncccc1[N+](=O)[O-])n1cnc2c(N)nc3ccccc3c21 (centres unmarked) [Example 23] | 1.11 µM |  | Lowest Effective Concentration (μM) Tumor Necrosis Factor [2]: *
8 | Nc1nc2ccccc2c2c1ncn2CCOCc1cc2ccccc2o1 [Example 12, 1-[2-(Benzo[b]furan-2-ylmethoxy)ethyl]-1H-imidazo[4,5-c]quinolin-4-amine] | 1.11 µM |  | Lowest Effective Concentration (μM) Tumor Necrosis Factor [2]: *
9 | Nc1nc2ccccc2c2c1ncn2CCOCCCc1cn[nH]c1 [Example 3, 1-{2-[3-(1H-Pyrazol-4-yl)propoxy]ethyl}-1H-imidazo[4,5-c]quinolin-4-amine] | 0.04 µM |  | Lowest Effective Concentration (μM) Tumor Necrosis Factor [2]: *
10 | Nc1nc2ccccc2c2c1ncn2CCOCC#Cc1ncccn1 [Example 17, 1-(2-{[3-(Pyrimidin-2-yl)-2-propynyl]oxy}ethyl)-1H-imidazo[4,5-c]quinolin-4-amine trifluoroacetate] | 0.37 µM | 0.37 µM | 
11 | CC(Cn1cnc2c(N)nc3ccccc3c21)Oc1ncccc1[N+](=O)[O-] (centres unmarked) [Example 26] | 1.11 µM |  | Lowest Effective Concentration (μM) Tumor Necrosis Factor [2]: *
12 | Nc1nc2ccccc2c2c1ncn2CCOCC#Cc1ccoc1 (as salt: trifluoroacetate) [Example 19, 1-(2-{[3-(Fur-3-yl)-2-propynyl]oxy}ethyl)-1H-imidazo[4,5-c]quinolin-4-amine trifluoroacetate] |  |  | melting point: 160 to 162 °C
13 | Nc1nc2ccccc2c2c1ncn2CCOCC#Cc1ccccn1 [Example 21, 1-(2-{[3-(Pyrid-2-yl)-2-propynyl]oxy}ethyl)-1H-imidazo[4,5-c]quinolin-4-amine trifluoroacetate] | 1.11 µM | 10 µM | 
14 | Cc1nc2c(N)nc3c(c2n1CCOCCCc1cccnc1)CCCC3 [Example 37, 2-methyl-1-[2-(3-pyridin-3-ylpropoxy)ethyl]-6,7,8,9-tetrahydro-1H-imidazo[4,5-c]quinolin-4-amine] |  |  | melting point: 140 to 141 °C
15 | Nc1nc2ccccc2c2c1ncn2CCOCC#Cc1ccoc1 [Example 19, 1-(2-{[3-(Fur-3-yl)-2-propynyl]oxy}ethyl)-1H-imidazo[4,5-c]quinolin-4-amine trifluoroacetate] | 0.12 µM | 3.33 µM | 
16 | CC(Cn1cnc2c(N)nc3ccccc3c21)OCC1CCCO1 (centres unmarked) [Example 22] | 1.11 µM | 10 µM | 
17 | CC(Cn1cnc2c(N)nc3ccccc3c21)Oc1ccc2[nH]c3ccccc3c2c1 (centres unmarked) [Example 29, 1-[2-(9H-carbazol-3-yloxy)propyl]-1H-imidazo[4,5-c]quinolin-4-amine trifluoroacetate] | 1.11 µM |  | Lowest Effective Concentration (μM) Tumor Necrosis Factor [2]: *
18 | Nc1nc2ccccc2c2c1ncn2CCOCC#Cc1ccccn1 (as salt: trifluoroacetate) [Example 21, 1-(2-{[3-(Pyrid-2-yl)-2-propynyl]oxy}ethyl)-1H-imidazo[4,5-c]quinolin-4-amine trifluoroacetate] |  |  | melting point: 129 to 131 °C
19 | CC(C)C(COc1ccccn1)n1cnc2c(N)nc3ccccc3c21 (centres unmarked) [Example 27, 1-{2-Methyl-1-[(pyrid-2-yloxy)methyl]propyl}-1H-imidazo[4,5-c]quinoline-4-amine trifluoroacetate] | 1.11 µM |  | Lowest Effective Concentration (μM) Tumor Necrosis Factor [2]: *
20 | Nc1nc2ccccc2c2c1ncn2CCOCC#Cc1csc(C=O)c1 [Example 20, 4-{3-[2-(4-Amino-1H-imidazo[4,5-c]quinolin-1-yl)ethoxy]-propyn-1-yl}thiophen-2-ylcarboxaldehyde trifluoroacetate] | 0.12 µM | 3.33 µM | 
21 | Nc1nc2ccccc2c2c1ncn2CCOCc1cccnc1 [Example 13, 1-[2-(Pyridin-3-ylmethoxy)ethyl]-1H-imidazo[4,5-c]quinolin-4-amine Hydrochloride] | 0.37 µM | 1.11 µM | 
22 | Nc1nc2ccccc2c2c1ncn2CCOCC#Cc1ccncc1 [Example 18, 1-(2-{[3-(Pyrid-4-yl)-2-propynyl]oxy}ethyl)-1H-imidazo[4,5-c]quinolin-4-amine bis(trifluoroacetate)] | 0.37 µM | 10 µM | 
23 | Nc1nc2ccccc2c2c1ncn2CCOCc1cccnc1 (as salt: hydrochloride) [Example 13, 1-[2-(Pyridin-3-ylmethoxy)ethyl]-1H-imidazo[4,5-c]quinolin-4-amine Hydrochloride] |  |  | melting point: 229 to 231 °C
24 | CC(Cn1cnc2c(N)nc3ccccc3c21)OCc1csc2ccc(Cl)cc12 (centres unmarked) [Example 25] | 10 µM |  | Lowest Effective Concentration (μM) Tumor Necrosis Factor [2]: *
25 | CCCCc1nc2c(N)nc3ccccc3c2n1CCOCCCc1cccnc1 [Example 35, 2-Butyl-1-[2-(3-pyridin-3-ylpropoxy)ethyl]-1H-imidazo[4,5-c]quinoline-4-amine] | 0.01 µM | 0.12 µM | 
26 | Nc1nc2ccccc2c2c1ncn2CCOCC#Cc1ncccn1 (as salt: trifluoroacetate) [Example 17, 1-(2-{[3-(Pyrimidin-2-yl)-2-propynyl]oxy}ethyl)-1H-imidazo[4,5-c]quinolin-4-amine trifluoroacetate] |  |  | melting point: 214 to 215 °C
27 | Nc1nc2ccccc2c2c1ncn2CCOCCCc1cccnc1 [Example 8, 1-[2-(3-Pyridin-3-ylpropoxy)ethyl]-1H-imidazo[4,5-c]quinolin-4-amine Bis(trifluoroacetate)] | 0.04 µM | 0.12 µM | 
